Measured values published in patent publication US12286389B2, “Crystalline form a of 2, 2-bis(4-fluorophenyl)-2-phenylacetamide and preparation method therefor and application thereof” (SHENZHEN RENTAI PHARMATECH LTD., priority 2019, dated 2025).

Assays:
Assay type in all cases: physicochemical
[1] = Light stability of the crystal form (XRPD comparison with day 0); settings: 25° C., 4500 Lux, XRPD vs day 0
Description: (1) Light stability: the test sample is placed in an environment having a temperature of 25° C. and a light condition of 4500 Lux for 5 days and 10 days, respectively, to test the stability of the crystal form, which are compared with XRPD pattern of the crystal form A on day 0.
(1) Light stability: by referring to the same method of light stability test for crystal A, the test sample is placed in an environment having a temperature of 25° C. and a light condition of 4500 Lux for 5 days to test the stability of the crystal form, which is compared with XRPD pattern of the crystal form I on day 0.

[2] = Hygroscopicity study by dynamic vapor sorption (DVS); settings: 25° C., RH 10% per step, 10 min per step
Description: Dynamic Vapor Sorption DVS
Model: DVS intrinsic (SMS, British);
Method: 25° C., relative humidity is stepped up at a rate of 10%, the judgment standard is change in moisture content is <0.02% over a 10-minute period.
Dynamic vapor sorption (DVS) experiment are performed for crystal form A in Example 2 to obtain DVS curves under the following conditions: the temperature is 25° C., the relative humidity (RH) is stepped up from RH 0 to RH 90% at a rate of RH 10% per step, with 10 min for each step to reach equilibrium.

[3] = High-humidity stability 1 of the crystal form (XRPD comparison with day 0); settings: 92.5% RH, 25° C., XRPD vs day 0
Description: (§1) (3) High-humidity stability 1: the test sample is placed in an environment having a humidity of 92.5% RH and a temperature of 25° C. for 5 days and 10 days, respectively, to test the stability of the crystal form, which are compared with XRPD pattern of the crystal form A on day 0.
as §1, with “1: by referring to the same method of high-humidity stability test 1 for crystal A,” for “1:”, “days” for “days and 10 days, respectively,”, “I” for “A”

[4] = High-temperature stability of the crystal form (XRPD comparison with day 0); settings: 60° C., XRPD vs day 0
Description: (2) High-temperature stability: the test sample is placed at a temperature of 60° C. for 5 days and 10 days, respectively, to test the stability of the crystal form, which are compared with XRPD pattern of the crystal form A on day 0.
(2) High-temperature stability: by referring to the same method of high-temperature stability test for crystal A, the test sample is placed at a temperature of 60° C. for 5 days to test the stability of the crystal form, which is compared with XRPD pattern of the crystal form I on day 0.

[5] = High-humidity stability 2 of the crystal form (XRPD comparison with day 0); settings: 75% RH, 40° C., XRPD vs day 0
Description: (§2) (4) High-humidity stability 2: the test sample is placed in an environment having a humidity of 75% RH and a temperature of 40° C. for 5 days and 10 days, respectively, to test the stability of the crystal form, which are compared with XRPD pattern of the crystal form A on day 0.
as §2, with “2: by referring to the same method of high-humidity stability test 2 for crystal A,” for “2:”, “days” for “days and 10 days, respectively,”, “I” for “A”

SMILES | light stability of the crystal form ([1]; 5 days and 10 days) | weight change in each step of 10 min [2] | high-humidity stability 1 of the crystal form ([3]; 5 days and 10 days) | high-temperature stability of the crystal form ([4]; 5 days and 10 days) | high-humidity stability 2 of the crystal form ([5]; 5 days and 10 days) | light stability of the crystal form ([1]; 5 days) | high-humidity stability 1 of the crystal form ([3]; 5 days) | high-temperature stability of the crystal form ([4]; 5 days) | high-humidity stability 2 of the crystal form ([5]; 5 days)
NC(=O)C(c1ccccc1)(c1ccc(F)cc1)c1ccc(F)cc1 [crystal form A, 2,2-bis(4-fluorophenyl)-2-phenylacetamide] | good light stability | less than 0.02% | good high-humidity stability | good high-temperature stability | good high-humidity stability | – | – | – | –
NC(=O)C(c1ccccc1)(c1ccc(F)cc1)c1ccc(F)cc1 [crystal form I, 2,2-bis(4-fluorophenyl)-2-phenylacetamide, reference compound] | – | – | – | – | – | unstable under lights and easily transforms into crystal form A | unstable under high humidity and easily transforms into crystal form A | unstable under high temperatures and easily transforms into crystal form A | unstable under high humidity and easily transforms into crystal form A
